The text below walks through data of PubChem BioAssay AID2335 (Sanford-Burnham Center for Chemical Genomics, 2010).

For the assay, the system named is HEK293 cytotoxicity, cell viability. The assay is described as follows: cytotoxicity toward HEK293 cells, SAR follow-up, cell-based, revised (AID 2335).

Calls of active or inactive are those of the source. How the calls were made is not given here.

With `Cn1nccc1C(=O)NC1CCCc2c1cnn2-c1ccccc1F` (stereo unspecified), the IC50 was > 20 µM (inactive).
